Experiments:
Format in all cases: in vivo
Chilo suppressalis = assay: Example B4: Chilo suppressalis (Striped Rice Stemborer); conditions: 144 h, application rate of 200 ppm, artificial diet, L2 larvae, 6 days after infestation, read-out: control in at least one of the three categories (mortality, anti-feedant or growth inhibition)
Experimental: Example B4: Chilo suppressalis (Striped Rice Stemborer)
24-well microtiter plates with artificial diet were treated with aqueous test solutions prepared from 10′000 ppm DMSO stock solutions by pipetting. After drying, the plates were infested with L2 larvae (6-8 per well). The samples were assessed for mortality, anti-feeding effect, and growth inhibition in comparison to untreated samples 6 days after infestation. Control of Chilo suppressalis by a test sample is given when at least one of the categories mortality, anti-feedant effect, and growth inhibition is higher than the untreated sample.

Plutella xylostella [1] = assay: Example B5: Plutella xylostella (Diamond Back Moth); conditions: 192 h, application rate of 200 ppm, 24-well artificial diet, eggs, 8 days after infestation, read-out: control in at least one of the two categories (mortality or growth inhibition)
Experimental: Example B5: Plutella xylostella (Diamond Back Moth)
24-well microtiter plates with artificial diet were treated with aqueous test solutions prepared from 10′000 ppm DMSO stock solutions by pipetting. After drying, Plutella eggs were pipetted through a plastic stencil onto a gel blotting paper and the plate was closed with it. The samples were assessed for mortality and growth inhibition in comparison to untreated samples 8 days after infestation.

Spodoptera littoralis = assay: Example B9: Spodoptera littoralis (Egyptian Cotton Leaf Worm), cotton leaf disc spray; conditions: foliar, 72 h, application rate of 200 ppm, sprayed cotton leaf discs, L1 larvae, 3 days after infestation, read-out: control in at least one of the three categories (mortality, anti-feedant or growth inhibition)
Diabrotica balteata = assay: Example B1: Diabrotica balteata (Corn Root Worm); conditions: 96 h, application rate of 200 ppm, sprayed maize sprouts, L2 larvae, 4 days after infestation, read-out: control in at least one of the two categories (mortality or growth inhibition)
Experimental: Example B1: Diabrotica balteata (Corn Root Worm)
Maize sprouts placed onto an agar layer in 24-well microtiter plates were treated with aqueous test solutions prepared from 10′000 ppm DMSO stock solutions by spraying. After drying, the plates were infested with L2 larvae (6 to 10 per well). The samples were assessed for mortality and growth inhibition in comparison to untreated samples 4 days after infestation.

Plutella xylostella [2] = assay: Example B12: Plutella xylostella (Diamondback Moth), 96-well artificial diet; conditions: 216 h, application rate of 500 ppm, eggs, 9 days after infestation
Experimental: Example B12: Plutella xylostella (Diamondback Moth)
96-well microtiter plates containing artificial diet were treated with aqueous test solutions, prepared from 10′000 ppm DMSO stock solutions, by a liquid handling robot. After drying, eggs (˜30 per well) were infested onto a netted lid which was suspended above the diet. The eggs hatch and L1 larvae move down to the diet. The samples were assessed for mortality 9 days after infestation.

| Structure (SMILES) | percent control (mortality, anti-feedant effect or growth inhibition) at 200 ppm (Chilo suppressalis) [%] | percent control (mortality or growth inhibition) at 200 ppm (Plutella xylostella [1]) [%] | percent control (mortality, anti-feedant effect or growth inhibition) at 200 ppm (Spodoptera littoralis) [%] | percent control (mortality or growth inhibition) at 200 ppm (Diabrotica balteata) [%] | mortality at 500 ppm (Plutella xylostella [2]) [%] |
| --- | --- | --- | --- | --- | --- |
| CC(NC(=O)c1cc(C(F)(F)F)cc(C(F)(F)C2CC2)c1)c1nccnc1-c1ccc(Cl)cn1 (stereo not shown) [P4, N-[1-[3-(5-chloro-2-pyridyl)pyrazin-2-yl]ethyl]-3-[cyclopropyl(difluoro)methyl]-5-(trifluoromethyl) benzamide] | ≥ 80 | ≥ 80 | ≥ 80 |  |  |
| CC(NC(=O)c1cc(C(F)(F)F)cc(C(C)(C)C#N)c1)c1nccnc1-c1ccc(F)cn1 (stereo not shown) [P5, 3-(1-cyano-1-methyl-ethyl)-N-[1-[3-(5-fluoro-2-pyridyl)pyrazin-2-yl]ethyl]-5-(trifluoromethyl) benzamide] |  | ≥ 80 |  |  |  |
| CC(NC(=O)c1cc(C(F)(F)F)cc(C(C)(C)C#N)c1)c1nccnc1-c1ncc(C2CC2)cn1 (stereo not shown) [P6, 3-(1-cyano-1-methyl-ethyl)-N-[1-[3-(5-cyclopropylpyrimidin-2-yl)pyrazin-2-yl]ethyl]-5-(trifluoromethyl) benzamide] | ≥ 80 | ≥ 80 | ≥ 80 | ≥ 80 |  |
| CC(NC(=O)c1cc(C(F)(F)F)cc(C(C)(C)C#N)c1)c1nccnc1-c1ccccn1 (stereo not shown) [P7, 3-(1-cyano-1-methyl-ethyl)-N-[1-[3-(2-pyridyl)pyrazin-2-yl]ethyl]-5-(trifluoromethyl) benzamide] | ≥ 80 | ≥ 80 | ≥ 80 | ≥ 80 |  |
| CC(NC(=O)c1cc(C(F)(F)F)cc(C(C)(C)C#N)c1)c1nccnc1-c1ccc(Cl)cn1 (stereo not shown) [P8, N-[1-[3-(5-chloro-2-pyridyl)pyrazin-2-yl]ethyl]-3-(1-cyano-1-methyl-ethyl)-5-(trifluoromethyl) benzamide] | ≥ 80 | ≥ 80 | ≥ 80 | ≥ 80 |  |
| CC(NC(=O)c1cc(C(F)(F)F)cc(C(C)(C)C#N)c1)c1nccnc1-c1ccc(Br)cn1 (stereo not shown) [P9, N-[1-[3-(5-bromo-2-pyridyl)pyrazin-2-yl]ethyl]-3-(1-cyano-1-methyl-ethyl)-5-(trifluoromethyl) benzamide] | ≥ 80 | ≥ 80 | ≥ 80 | ≥ 80 |  |
| CC(NC(=O)c1cc(C(F)(F)F)cc(S(=O)(=O)C(F)(F)F)c1)c1nccnc1-c1ccc(F)cn1 (stereo not shown) [P12, N-[1-[3-(5-fluoro-2-pyridyl)pyrazin-2-yl]ethyl]-3-(trifluoromethyl)-5-(trifluoromethylsulfonyl) benzamide] | ≥ 80 |  |  |  | ≥ 80 |
| CC(NC(=O)c1cc(C(F)(F)F)cc(S(=O)(=O)C(F)(F)F)c1)c1nccnc1-c1ccc(Br)cn1 (stereo not shown) [P14, N-[1-[3-(5-bromo-2-pyridyl)pyrazin-2-yl]ethyl]-3-(trifluoromethyl)-5-(trifluoromethylsulfonyl) benzamide] |  |  |  |  | ≥ 80 |
| CC(NC(=O)c1cc(C(F)(F)F)cc(S(=O)(=O)C(F)(F)F)c1)c1nccnc1-c1ccc(Cl)cn1 (stereo not shown) [P15, N-[1-[3-(5-chloro-2-pyridyl)pyrazin-2-yl]ethyl]-3-(trifluoromethyl)-5-(trifluoromethylsulfonyl) benzamide] |  |  |  |  | ≥ 80 |
| CC(NC(=O)c1cc(C2CC2)cc(C(F)(F)F)c1)c1nccnc1-c1ccc(Br)cn1 (stereo not shown) [P29, N-[1-[3-(5-bromo-2-pyridyl)pyrazin-2-yl]ethyl]-3-cyclopropyl-5-(trifluoromethyl)benzamide] |  | ≥ 80 |  |  | ≥ 80 |
| CC(NC(=O)c1cc(C(F)(F)F)cc(C(F)(F)C2CC2)c1)c1nccnc1-c1ccc(F)cn1 (stereo not shown) [P38, 3-[cyclopropyl (difluoro)methyl]-N-[1-[3-(5-fluoro-2-pyridyl)pyrazin-2-yl]ethyl]-5-(trifluoromethyl)benzamide] |  | ≥ 80 |  |  | ≥ 80 |
| CC(NC(=O)c1cc(OCC2CC2)nc(C(F)(F)F)c1)c1nccnc1-c1ncccn1 (stereo not shown) [P43, 2-(cyclopropylmethoxy)-N-[1-(3-pyrimidin-2-ylpyrazin-2-yl)ethyl]-6-(trifluoromethyl)pyridine-4-carboxamide] | ≥ 80 | ≥ 80 |  |  |  |
| COC1(c2cc(C(=O)NC(C)c3nccnc3-c3ncccn3)cc(C(F)(F)F)c2)CC1 (stereo not shown) [P47, 3-(1-methoxycyclopropyl)-N-[1-(3-pyrimidin-2-ylpyrazin-2-yl)ethyl]-5-(trifluoromethyl)benzamide] | ≥ 80 | ≥ 80 |  |  |  |
| CC(NC(=O)c1cc(C(F)(F)F)cc(C(C)(C)C#N)c1)c1nccnc1-c1ncc(Br)cn1 (stereo not shown) [P49, N-[1-[3-(5-bromopyrimidin-2-yl)pyrazin-2-yl]ethyl]-3-(1-cyano-1-methyl-ethyl)-5-(trifluoromethyl)benzamide] | ≥ 80 | ≥ 80 | ≥ 80 | ≥ 80 |  |
| Cc1cnc(-c2nccnc2C(C)NC(=O)c2cc(C3CC3)cc(C(F)(F)F)c2)nc1 (stereo not shown) [P51, 3-cyclopropyl-N-[1-[3-(5-methylpyrimidin-2-yl)pyrazin-2-yl]ethyl]-5-(trifluoromethyl)benzamide] |  | ≥ 80 | ≥ 80 |  |  |
| Cc1cnc(-c2nccnc2C(C)NC(=O)c2cc(C(F)(F)F)cc(C(F)(F)C3CC3)c2)nc1 (stereo not shown) [P52, 3-[cyclopropyl (difluoro)methyl]-N-[1-[3-(5-methylpyrimidin-2-yl)pyrazin-2-yl]ethyl]-5-(trifluoromethyl)benzamide] |  | ≥ 80 | ≥ 80 |  |  |
| CC(NC(=O)c1cc(C(F)(F)F)cc(C(F)(F)C2CC2)c1)c1nccnc1-c1ncc(Br)cn1 (stereo not shown) [P53, N-[1-[3-(5-bromopyrimidin-2-yl)pyrazin-2-yl]ethyl]-3-[cyclopropyl(difluoro)methyl]-5-(trifluoromethyl)benzamide] | ≥ 80 | ≥ 80 | ≥ 80 | ≥ 80 |  |
| Cc1cnc(-c2nccnc2C(C)NC(=O)c2cc(C(F)(F)F)cc(C3(C#N)CC3)c2)nc1 (stereo not shown) [P54, 3-(1-cyanocyclopropyl)-N-[1-[3-(5-methylpyrimidin-2-yl)pyrazin-2-yl]ethyl]-5-(trifluoromethyl)benzamide] | ≥ 80 | ≥ 80 | ≥ 80 |  |  |
| Cc1cnc(-c2nccnc2C(C)NC(=O)c2cc(C(F)(F)F)cc(S(=O)(=O)C(F)(F)F)c2)nc1 (stereo not shown) [P56, N-[1-[3-(5-methylpyrimidin-2-yl)pyrazin-2-yl]ethyl]-3-(trifluoromethyl)-5-(trifluoromethylsulfonyl) benzamide] | ≥ 80 | ≥ 80 | ≥ 80 |  |  |
| CC(NC(=O)c1cc(C(F)(F)F)cc(S(=O)(=O)C(F)(F)F)c1)c1nccnc1-c1ncc(Br)cn1 (stereo not shown) [P57, N-[1-[3-(5-bromopyrimidin-2-yl)pyrazin-2-yl]ethyl]-3-(trifluoromethyl)-5-(trifluoromethylsulfonyl) benzamide] | ≥ 80 | ≥ 80 | ≥ 80 | ≥ 80 |  |
| CC(NC(=O)c1cc(C2CC2)cc(C(F)(F)F)c1)c1nccnc1-c1ncc(Br)cn1 (stereo not shown) [P58, N-[1-[3-(5-bromopyrimidin-2-yl)pyrazin-2-yl]ethyl]-3-cyclopropyl-5-(trifluoromethyl) benzamide] | ≥ 80 | ≥ 80 | ≥ 80 | ≥ 80 |  |

Source: patent publication US12527325B2, “Pesticidally active diazine-amide compounds” (SYNGENTA CROP PROTECTION AG, priority 2019, dated 2026)
